Experiments:
[1] = tested on: GT1a replicon encoding NS5A mutation Y93H; assay: Transient replication assay, GT1a replicon with NS5A mutation Y93H; assay type: cell-based; conditions: Hepatitis C virus, read-out: EC50 1a Y93H
[2] = IV and PO single dose pharmacokinetic studies in SD rats; assay type: in vivo; conditions: Sprague-Dawley, rat, plasma, male SD rats, oral gavage 20 mg/kg vs IV bolus 2 mg/kg
Experimental: The pharmacokinetics of selected compounds was characterized in male Sprague-Dawley (SD) rats (250-300 g). […] The intravenous (IV) dosing vehicle was 5% ethanol and 95% of 20% 2-hydroxypropyl β-cyclodextrin in water. The oral dosing vehicle was 33% of Microemulsion Preconcentrate #5 (a lipid based self-emulsifying drug delivery system, SEDDS) and 67% of 50 mM citrate buffer (final pH 3.6).
Serial blood samples (approximately 0.3 mL each) were collected from jugular vein or other suitable vein at specified time points. For the IV dosing group, the blood samples were collected predose and at 0.08, 0.25, 0.50, 1, 3, 6, 8, and 24 hours after the start of dosing. For the oral group, the blood samples were collected predose and at 0.08, 0.25, 0.50, 1, 3, 6, 8, and 24 hours after dosing. The blood samples were collected into VACUTAINER™ tubes containing EDTA-K3 as the anti-coagulant and were centrifuged at approximately 4° C. to obtain plasma. The plasma samples were stored at −20° C. until analysis by LC/MS/MS.
A bioanalytical method utilizing high performance liquid chromatography coupled to tandem mass spectrometry (LC/MS/MS) was developed for analysis of the selected compound in rat plasma. Detection was performed using multiple reaction monitoring (MRM); Ions representing the precursor (M+H)^+ species was selected in quadrupole 1 (Q1) and collided with nitrogen gas in the collision cell (Q2) to generate specific product ion, which was subsequently monitored by quadrupole 3 (Q3). Standard curve and quality control samples were prepared in male rat plasma and processed in the same way as the test samples to generate quantitative data.
Pharmacokinetic parameters were generated using non-compartmental pharmacokinetic analysis (Phoenix WinNonlin, version 6.3). Values below the lower limit of quantification (LLOQ) were assigned a value of zero if predose and treated as missing thereafter. Area under the curve (AUC) was calculated using the linear trapezoidal rule. The oral bioavailability (% F) was determined by comparison of the area under the curve (AUC) of the compound in plasma following oral administration to that generated following intravenous administration.

[3] = tested on: GT1a replicon encoding NS5A mutation L31V; assay: Transient replication assay, GT1a replicon with NS5A mutation L31V; assay type: cell-based; conditions: Hepatitis C virus, read-out: EC50 1a L31V
HCV GT 1a replicon = assay: HCV replicon assay, stable GT 1a replicon (Renilla luciferase); assay type: cell-based; conditions: Hepatitis C virus, GT1A; HCV GT 1a replicon, 72 h; read-out: EC50 1a
Outline: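 Huh-7.5 cells stably carrying a GT1a replicon (H77-based) with Renilla luciferase-Neo reporter, 4000 cells/well, sixteen-point half-log compound series, phenol red-free DMEM without G418. Luciferase read after 72 h relative to DMSO-treated cells gives EC50.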

SMILES | EC50 [1] [nM] | bioavailability [2] [%] | EC50 [3] [nM] | EC50 (HCV GT 1a replicon) [nM]
COC(=O)N[C@H](C(=O)N1[C@H](c2nc3ccc4cc(-c5ccc(-c6cnc([C@@H]7C[C@@]8(CCCOC8)CN7C(=O)[C@@H](NC(=O)OC)C7C[C@@H](C)O[C@H](C)C7)[nH]6)cc5)ccc4c3[nH]2)C[C@@H]2CCCC[C@@H]21)C(C)C (stereo in doubt) [Compound 38] | 0.2 | 12.4 | 0.002 | 0.008
COC(=O)N[C@H](C(=O)N1C[C@]2(CCCOC2)C[C@H]1c1nc2ccc3cc(-c4ccc(-c5cnc([C@@H]6C[C@H]7C[C@H]7N6C(=O)[C@@H](NC(=O)OC)C(C)C)[nH]5)cc4)ccc3c2[nH]1)C(C)C [Compound 5] | 2 | 12.2 | 0.1 | 0.008
COC(=O)N[C@H](C(=O)N1C[C@]2(CCCOC2)C[C@H]1c1nc2ccc3cc(-c4ccc5c(ccc6nc([C@@H]7C[C@H]8C[C@H]8N7C(=O)[C@@H](NC(=O)OC)C(C)C)[nH]c65)c4)ccc3c2[nH]1)C(C)C [Compound 6] | 0.8 | 3.5 | 0.2 | 0.007
COC(=O)N[C@H](C(=O)N1CC2(CC2)C[C@H]1c1nc2ccc3cc(-c4ccc5c(ccc6nc([C@@H]7C[C@@]8(CCCOC8)CN7C(=O)[C@@H](NC(=O)OC)C(C)C)[nH]c65)c4)ccc3c2[nH]1)C(C)C [Compound 7] | 1 | 2.5 | 0.1 | 0.009
COC(=O)N[C@H](C(=O)N1CC2(CC2)C[C@H]1c1ncc(-c2ccc(-c3ccc4c(ccc5nc([C@@H]6C[C@@]7(CCCOC7)CN6C(=O)[C@@H](NC(=O)OC)C(C)C)[nH]c54)c3)cc2)[nH]1)C(C)C [Compound 8] | 4 | 4.1 | 0.2 | 0.01
COC(=O)N[C@H](C(=O)N1C[C@]2(CCCOC2)C[C@H]1c1nc2ccc3cc(-c4ccc5c(ccc6nc([C@@H]7C[C@@H]8CCC[C@@H]8N7C(=O)[C@@H](NC(=O)OC)C(C)C)[nH]c65)c4)ccc3c2[nH]1)C(C)C [Compound 9] | 2 | 2.6 | 0.07 | 0.007
COC(=O)N[C@H](C(=O)N1C[C@]2(CCCOC2)C[C@H]1c1nc2ccc3cc(-c4ccc(-c5cnc([C@@H]6C[C@@H]7CCC[C@@H]7N6C(=O)[C@@H](NC(=O)OC)C(C)C)[nH]5)cc4)ccc3c2[nH]1)C(C)C [Compound 10] | 4 | 5.7 | 0.05 | 0.005
COC(=O)N[C@H](C(=O)N1C[C@]2(CCCOC2)C[C@H]1c1ncc(-c2ccc(-c3ccc4c(ccc5nc([C@@H]6C[C@@]7(CCCOC7)CN6C(=O)[C@@H](NC(=O)OC)C(C)C)[nH]c54)c3)cc2)[nH]1)C(C)C [Compound 11] | 2 | 7.1 | 0.08 | 0.023
COC(=O)N[C@H](C(=O)N1C[C@]2(CCCOC2)C[C@H]1c1ncc(-c2ccc(-c3ccc4c(ccc5nc([C@@H]6C[C@H]7C[C@H]7N6C(=O)[C@@H](NC(=O)OC)C(C)C)[nH]c54)c3)cc2)[nH]1)C(C)C [Compound 18] | 6 | 3.3 | 0.3 | 0.007
COC(=O)N[C@H](C(=O)N1C[C@]2(CCCOC2)C[C@H]1c1nc2ccc3cc(-c4ccc5c(ccc6nc([C@@H]7C[C@@H]8C[C@@H]8N7C(=O)[C@@H](NC(=O)OC)C(C)C)[nH]c65)c4)ccc3c2[nH]1)C(C)C [Compound 21] | 4 | 3.4 | 1 | 0.02
COC(=O)N[C@H](C(=O)N1C[C@]2(CCCOC2)C[C@H]1c1nc2ccc3cc(-c4ccc(-c5cnc([C@@H]6C[C@@H]7C[C@@H]7N6C(=O)[C@@H](NC(=O)OC)C(C)C)[nH]5)cc4)ccc3c2[nH]1)C(C)C [Compound 22] | 6 | 9.4 | 0.9 | 0.009
COC(=O)N[C@H](C(=O)N1C[C@]2(CCCOC2)C[C@H]1c1nc2ccc3cc(-c4ccc5c(ccc6nc([C@@H]7C[C@@H]8CCCC[C@@H]8N7C(=O)[C@@H](NC(=O)OC)C(C)C)[nH]c65)c4)ccc3c2[nH]1)C(C)C [Compound 23] | 1 | 5.5 | 0.07 | 0.012
COC(=O)N[C@H](C(=O)N1C[C@]2(CCCOC2)C[C@H]1c1nc2ccc3cc(-c4ccc(-c5cnc([C@@H]6C[C@@H]7CCCC[C@@H]7N6C(=O)[C@@H](NC(=O)OC)C(C)C)[nH]5)cc4)ccc3c2[nH]1)C(C)C [Compound 24] | 3 | 7.9 | 0.07 | 0.007
COC(=O)N[C@H](C(=O)N1C[C@]2(CCCOC2)C[C@H]1c1ncc(-c2ccc(-c3ccc4c(ccc5nc([C@@H]6CC7(CC7)CN6C(=O)[C@@H](NC(=O)OC)C(C)C)[nH]c54)c3)cc2)[nH]1)C(C)C [Compound 28] | 16 | 7.2 | 0.3 | 0.011
COC(=O)N[C@H](C(=O)N1C[C@]2(CCCOC2)C[C@H]1c1ncc(-c2ccc(-c3ccc4c(ccc5nc([C@@H]6C[C@@H]7CCCC[C@@H]7N6C(=O)[C@@H](NC(=O)OC)C(C)C)[nH]c54)c3)cc2)[nH]1)C(C)C [Compound 29] | 7 | 17.1 | 0.1 | 0.006
COC(=O)N[C@H](C(=O)N1C[C@]2(CCCOC2)C[C@H]1c1nc2ccc3cc(-c4ccc5c(ccc6nc([C@@H]7C[C@@]8(CCCOC8)CN7C(=O)[C@@H](NC(=O)OC)C(C)C)[nH]c65)c4)ccc3c2[nH]1)C(C)C [Compound 31] | 0.2 | 3.8 | 0.03 | 0.03
COC(=O)N[C@H](C(=O)N1C[C@]2(CCCOC2)C[C@H]1c1ncc(-c2ccc(-c3ccc(-c4cnc([C@@H]5C[C@@H]6CCCC[C@@H]6N5C(=O)[C@@H](NC(=O)OC)C(C)C)[nH]4)cc3)cc2)[nH]1)C(C)C [Compound 32] | 7 | 24.1 | 0.4 | 0.007
COC(=O)N[C@H](C(=O)N1C[C@]2(CCCOC2)C[C@H]1c1nc2ccc3cc(-c4ccc(-c5cnc([C@@H]6C[C@@H]7COC[C@@H]7N6C(=O)[C@@H](NC(=O)OC)C(C)C)[nH]5)cc4)ccc3c2[nH]1)C(C)C [Compound 34] | 4 | 2.1 | 0.08 | 0.024
COC(=O)N[C@H](C(=O)N1C[C@]2(CCCOC2)C[C@H]1c1ncc(-c2ccc(-c3ccc4c(ccc5nc([C@@H]6C[C@@H]7COC[C@@H]7N6C(=O)[C@@H](NC(=O)OC)C(C)C)[nH]c54)c3)cc2)[nH]1)C(C)C [Compound 35] | 26 | 1.1 | 0.5 | 0.028
COC(=O)N[C@H](C(=O)N1C[C@]2(CCCOC2)C[C@H]1c1ncc(-c2ccc(-c3ccc(-c4cnc([C@@H]5C[C@@H]6CCC[C@@H]6N5C(=O)[C@@H](NC(=O)OC)C(C)C)[nH]4)cc3)cc2)[nH]1)C(C)C [Compound 37] | 15 | 114 | 0.5 | 0.008
COC(=O)N[C@H](C(=O)N1CCC[C@H]1c1ncc(-c2ccc(-c3ccc4c(ccc5nc([C@@H]6C[C@@]7(CCCOC7)CN6C(=O)[C@@H](NC(=O)OC)C(C)C)[nH]c54)c3)cc2)[nH]1)C(C)C [Compound 44] | 6 | 14.8 | 0.6 | 0.01
COC(=O)N[C@H](C(=O)N1C[C@]2(CCCOC2)C[C@H]1c1ncc(-c2ccc(-c3ccc4c(ccc5nc([C@@H]6CCCN6C(=O)[C@@H](NC(=O)OC)C(C)C)[nH]c54)c3)cc2)[nH]1)C(C)C [Compound 47] | 8 | 7 | 1 | 0.015
COC(=O)N[C@H](C(=O)N1CCC[C@H]1c1nc2ccc3cc(-c4ccc5c(ccc6nc([C@@H]7C[C@@]8(CCCOC8)CN7C(=O)[C@@H](NC(=O)OC)C(C)C)[nH]c65)c4)ccc3c2[nH]1)C(C)C [Compound 48] | 2 | 1.7 | 0.5 | 0.006
COC(=O)N[C@H](C(=O)N1CCC[C@H]1c1ncc(-c2ccc(-c3ccc4c(ccc5nc([C@@H]6C[C@]7(CCOC7)CN6C(=O)[C@@H](NC(=O)OC)C(C)C)[nH]c54)c3)cc2)[nH]1)C(C)C [Compound 51] | 4 | 8.6 | 0.4 | 0.011

— patent US10407445B2, “Hepatitis C virus inhibitors” (ENANTA PHARMACEUTICALS, INC., priority 2013, dated 2019)
